Key:
[1] = Thermal stability of K2FeO4, cycling temperature profile (AR 70-38); type: physicochemical; conditions: cycling daily from 23° C. to 71° C. and back again
Protocol: The cycling temperature profile specified in AR 70-38 also was studied. An oven (Fisher Scientific model No. 48) was outfitted with a programmable temperature controller (Omega Engineering model CN3251) and a small fan in order to provide air circulation. Temperature data acquisition was performed using a HOBO data logger (Onset Computer Corp., model HTEA −39+123° C.). The temperature controller was programmed to meet the specifications of AR 70-38 Sec. II, Table 2-2 (Storage and Transit Conditions). Specifically, the oven was programmed to remain above 66° C. for at least 5 hrs and to reach a peak temperature of 71° C. for not more than 1 hr. The programmed parameters appear below in Table 1.

[2] = Stain removal from HAP disk, grape juice stain; conditions: disk A-4: grape juice stained disk treated the same way as P and Q (pH 8 SDS/HEPA buffer)

Substance: potassium ferrate(VI)
- stable to storage [1]: at least 82 days
- L* (lightness/darkness) [2]: 103.5
- a* (blue/red) [2]: −1.9
- appearance of disk after treatment [2]: All stains were removed
- b* (yellow/green) [2]: −3.1
- reflectance of visible light at 450 nm [2]: 111.244
- reflectance of visible light at 750 nm [2]: 103.795
- ΔE (grape juice stain) [2]: 6.10
